Molecular target: Substance-P receptor (Homo sapiens, UniProt P25103)
Experiment: Binding affinity towards human Tachykinin receptor 1 by the displacement of [125I]- Substance P in CHO Cells

Chain of Substance-P receptor (P25103 whole entry): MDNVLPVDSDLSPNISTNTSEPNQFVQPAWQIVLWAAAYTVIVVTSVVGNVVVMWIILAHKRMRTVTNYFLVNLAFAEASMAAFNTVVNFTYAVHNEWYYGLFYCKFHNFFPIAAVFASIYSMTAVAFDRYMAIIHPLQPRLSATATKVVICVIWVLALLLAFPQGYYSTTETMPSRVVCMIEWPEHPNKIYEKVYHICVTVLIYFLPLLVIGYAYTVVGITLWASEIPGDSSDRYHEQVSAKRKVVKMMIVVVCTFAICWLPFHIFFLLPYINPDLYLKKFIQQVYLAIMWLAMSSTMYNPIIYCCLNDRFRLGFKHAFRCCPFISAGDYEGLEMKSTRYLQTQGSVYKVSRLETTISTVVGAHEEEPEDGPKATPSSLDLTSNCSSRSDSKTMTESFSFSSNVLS

Row | IC50 [µM] | Structure (SMILES)
1 | 1.53 | FC(F)(F)c1cc(CC[C@@H]2OCCN[C@@H]2c2ccccc2)cc(C(F)(F)F)c1
2 | 2.53 | O=C1CO[C@@H](/C=C/c2cc(C(F)(F)F)cc(C(F)(F)F)c2)[C@@H](c2ccccc2)N1
3 | 0.087 | FC(F)(F)c1cc(C2OC2[C@@H]2OCCN[C@@H]2c2ccccc2)cc(C(F)(F)F)c1 (some centres undefined)
4 | 1.13 | FC(F)(F)c1cc(CC[C@H]2OCCN[C@@H]2c2ccccc2)cc(C(F)(F)F)c1
